Biological target: T1, full-length ATR (Homo sapiens, UniProt Q13535)
T1 construct: in the presence of 5 nM full-length ATR
Experiment: ATR Inhibition Assay (radioactive-phosphate incorporation)
Type: biochemical
Settings: Ki(app); 5 nM full-length ATR, 10 μM ATP, 800 μM target peptide, 25° C.
Outline: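 Buffer was 50 mM Tris/HCl pH 7.5, 10 mM MgCl2, 1 mM DTT, with 5 nM enzyme, 10 μM [γ-33P]ATP and 800 μM target peptide at 25 °C. Compound was pre-incubated 10 min before ATP start, and the reaction was stopped after 24 h. Phosphocellulose filter capture; Ki(app) came from non-linear regression of background-corrected initial rates.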

T1 sequence (Q13535 whole entry): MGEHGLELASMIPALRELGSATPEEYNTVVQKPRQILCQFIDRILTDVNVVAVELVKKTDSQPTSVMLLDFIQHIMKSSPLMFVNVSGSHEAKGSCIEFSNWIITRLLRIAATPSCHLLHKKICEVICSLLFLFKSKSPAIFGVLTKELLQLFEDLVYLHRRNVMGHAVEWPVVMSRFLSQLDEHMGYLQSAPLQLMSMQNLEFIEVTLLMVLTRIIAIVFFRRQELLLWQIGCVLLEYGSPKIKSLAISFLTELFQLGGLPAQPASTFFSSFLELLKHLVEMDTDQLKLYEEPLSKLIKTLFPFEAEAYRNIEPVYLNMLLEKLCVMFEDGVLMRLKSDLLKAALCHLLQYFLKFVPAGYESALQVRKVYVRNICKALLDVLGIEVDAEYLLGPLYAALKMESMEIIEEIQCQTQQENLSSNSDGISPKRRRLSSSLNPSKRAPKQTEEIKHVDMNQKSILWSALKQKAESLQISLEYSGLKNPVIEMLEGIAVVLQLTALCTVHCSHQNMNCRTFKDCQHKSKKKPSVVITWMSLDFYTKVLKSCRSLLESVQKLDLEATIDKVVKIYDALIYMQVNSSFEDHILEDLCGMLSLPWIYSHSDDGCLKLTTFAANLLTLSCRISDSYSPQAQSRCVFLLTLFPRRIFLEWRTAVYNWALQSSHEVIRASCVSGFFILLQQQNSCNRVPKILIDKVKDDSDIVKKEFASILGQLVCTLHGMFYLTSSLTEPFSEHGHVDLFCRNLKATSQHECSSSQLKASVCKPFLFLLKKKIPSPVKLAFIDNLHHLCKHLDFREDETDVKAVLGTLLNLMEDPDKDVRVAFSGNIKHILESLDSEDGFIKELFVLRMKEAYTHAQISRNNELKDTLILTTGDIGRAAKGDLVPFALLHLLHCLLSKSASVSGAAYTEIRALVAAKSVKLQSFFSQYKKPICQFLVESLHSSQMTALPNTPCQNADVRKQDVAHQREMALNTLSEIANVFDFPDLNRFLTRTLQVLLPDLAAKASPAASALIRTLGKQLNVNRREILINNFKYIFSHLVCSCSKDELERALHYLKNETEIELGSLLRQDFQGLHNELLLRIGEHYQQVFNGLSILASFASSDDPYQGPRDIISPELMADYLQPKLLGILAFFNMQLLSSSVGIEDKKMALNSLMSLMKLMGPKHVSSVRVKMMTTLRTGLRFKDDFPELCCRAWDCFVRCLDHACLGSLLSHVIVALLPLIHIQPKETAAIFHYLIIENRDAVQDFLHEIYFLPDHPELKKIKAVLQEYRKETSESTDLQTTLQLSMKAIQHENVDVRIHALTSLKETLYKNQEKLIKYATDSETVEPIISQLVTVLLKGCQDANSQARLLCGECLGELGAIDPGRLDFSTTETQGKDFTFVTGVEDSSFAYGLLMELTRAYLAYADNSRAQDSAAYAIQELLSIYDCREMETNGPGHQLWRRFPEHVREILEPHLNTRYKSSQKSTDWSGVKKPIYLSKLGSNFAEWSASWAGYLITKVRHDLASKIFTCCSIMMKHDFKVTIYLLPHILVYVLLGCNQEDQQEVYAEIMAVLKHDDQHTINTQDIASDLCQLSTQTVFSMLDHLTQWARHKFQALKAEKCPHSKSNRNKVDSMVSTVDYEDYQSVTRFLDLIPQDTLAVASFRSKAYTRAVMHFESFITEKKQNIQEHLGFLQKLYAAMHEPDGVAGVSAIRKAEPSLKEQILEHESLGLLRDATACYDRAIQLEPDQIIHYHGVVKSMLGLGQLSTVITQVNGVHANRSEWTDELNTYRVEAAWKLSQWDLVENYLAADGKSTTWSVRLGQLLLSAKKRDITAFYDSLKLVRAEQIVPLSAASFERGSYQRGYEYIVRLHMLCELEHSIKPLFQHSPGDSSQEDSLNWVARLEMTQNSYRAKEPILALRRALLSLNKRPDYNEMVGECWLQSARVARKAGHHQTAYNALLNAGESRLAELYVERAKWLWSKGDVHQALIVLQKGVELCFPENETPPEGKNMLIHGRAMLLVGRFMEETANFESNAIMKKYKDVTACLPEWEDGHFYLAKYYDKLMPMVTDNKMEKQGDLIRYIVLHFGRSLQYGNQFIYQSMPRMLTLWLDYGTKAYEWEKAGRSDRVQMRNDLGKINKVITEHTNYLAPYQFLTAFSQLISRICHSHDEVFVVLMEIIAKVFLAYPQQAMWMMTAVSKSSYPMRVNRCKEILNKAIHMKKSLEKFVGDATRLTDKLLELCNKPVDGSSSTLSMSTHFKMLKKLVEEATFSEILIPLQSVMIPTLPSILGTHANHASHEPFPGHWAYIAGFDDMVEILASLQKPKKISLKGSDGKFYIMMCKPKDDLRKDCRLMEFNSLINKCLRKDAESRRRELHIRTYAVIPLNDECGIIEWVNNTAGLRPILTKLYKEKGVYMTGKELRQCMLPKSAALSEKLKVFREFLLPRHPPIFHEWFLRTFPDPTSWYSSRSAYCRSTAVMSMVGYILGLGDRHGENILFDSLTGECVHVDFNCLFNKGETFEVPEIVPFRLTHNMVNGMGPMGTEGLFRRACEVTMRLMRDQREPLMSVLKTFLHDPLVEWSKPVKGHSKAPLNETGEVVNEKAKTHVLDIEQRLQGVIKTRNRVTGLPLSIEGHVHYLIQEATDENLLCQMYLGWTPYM

SMILES	Ki [nM]
CCN1CCN(c2cnc(N)c(-c3nnc(-c4ccc(CNC)cc4)o3)n2)CC1 [Compound I-322, 5-(4-Ethylpiperazin-1-yl)-3-[5-[4-(methylaminomethyl)phenyl]-1,3,4-oxadiazol-2-yl]pyrazin-2-amine]	100 to 1000
Nc1ncc(N2CCN(C(=O)c3ccccc3)CC2)nc1-c1nc2ccccc2[nH]1 [Compound I-208, (4-(5-amino-6-(1H-benzo[d]imidazol-2-yl)pyrazin-2-yl)piperazin-1-yl)(phenyl)methanone]	100 to 1000
CC(C)C(=O)N1CC=C(c2cnc(N)c(-c3nc4ccccc4[nH]3)n2)CC1 [Compound I-293, 1-[4-[5-amino-6-(1H-benzimidazol-2-yl)pyrazin-2-yl]-3,6-dihydro-2H-pyridin-1-yl]-2-methyl-propan-1-one]	100 to 1000
CCS(=O)(=O)N1CCN(c2cnc(N)c(-c3cc4ccccc4[nH]3)n2)CC1 [Compound I-61, 5-(4-(ethylsulfonyl)piperazin-1-yl)-3-(1H-indol-2-yl)pyrazin-2-amine]	1000 to 10000
CN(C)C(=O)N1CCN(c2cnc(N)c(-c3nnc(-c4ccccc4)o3)n2)CC1 [Compound I-218, 4-(5-amino-6-(5-phenyl-1,3,4-oxadiazol-2-yl)pyrazin-2-yl)-N,N-dimethylpiperazine-1-carboxamide]	100 to 1000
Cc1ccc2nc(-c3nc(N4CCC(O)CC4)cnc3N)[nH]c2c1 [Compound I-5, 1-(5-amino-6-(6-methyl-1H-benzo[d]imidazol-2-yl)pyrazin-2-yl)piperidin-4-ol]	1000 to 10000
Cn1cnc(S(=O)(=O)N2CCN(c3cnc(N)c(-c4nc5ccccc5[nH]4)n3)CC2)c1 [Compound I-91, 3-(1H-benzo[d]imidazol-2-yl)-5-(4-(1-methyl-1H-imidazol-4-ylsulfonyl)piperazin-1-yl)pyrazin-2-amine]	100 to 1000
CC#CCOC(=O)N1CC=C(c2cnc(N)c(-c3nc4ccccc4[nH]3)n2)CC1 [Compound I-254, but-2-ynyl 4-(5-amino-6-(1H-benzo[d]imidazol-2-yl)pyrazin-2-yl)-5,6-dihydropyridine-1(2H)-carboxylate]	100 to 1000
CC#CCOC(=O)N1CC=C(c2cnc(N)c(-c3nnc(-c4ccccc4)o3)n2)CC1 [Compound I-115, but-2-ynyl 4-(5-amino-6-(5-phenyl-1,3,4-oxadiazol-2-yl)pyrazin-2-yl)-5,6-dihydropyridine-1(2H)-carboxylate]	< 100
COCCOC(=O)N1CC=C(c2cnc(N)c(-c3nnc(-c4ccccc4)o3)n2)CC1 [Compound I-224, 2-methoxyethyl 4-(5-amino-6-(5-phenyl-1,3,4-oxadiazol-2-yl)pyrazin-2-yl)-5,6-dihydropyridine-1(2H)-carboxylate]	< 100
COCCOC(=O)N1CCN(c2cnc(N)c(-c3nc4ccccc4[nH]3)n2)CC1 [Compound I-266, 2-methoxyethyl 4-(5-amino-6-(1H-benzo[d]imidazol-2-yl)pyrazin-2-yl)piperazine-1-carboxylate]	1000 to 10000
CCS(=O)(=O)N1CCN(c2cnc(N)c(-c3nnc(-c4ccco4)o3)n2)CC1 [Compound I-297, 5-(4-ethylsulfonylpiperazin-1-yl)-3-[5-(2-furyl)-1,3,4-oxadiazol-2-yl]pyrazin-2-amine]	100 to 1000
Nc1ncc(N2CCN(C(=O)c3ccccn3)CC2)nc1-c1nc2ccccc2[nH]1 [Compound I-176, (4-(5-amino-6-(1H-benzo[d]imidazol-2-yl)pyrazin-2-yl)piperazin-1-yl)(pyridin-2-yl)methanone]	100 to 1000
CC(C)C(=O)N1CC=C(c2cnc(N)c(-c3nc4cccnc4[nH]3)n2)CC1 [Compound I-67, 1-(4-(5-amino-6-(3H-imidazo[4,5-b]pyridin-2-yl)pyrazin-2-yl)-5,6-dihydropyridin-1(2H)-yl)-2-methylpropan-1-one]	< 100
Nc1ncc(C2=CCN(C(=O)c3c(F)cccc3F)CC2)nc1-c1nnc(-c2ccccc2)o1 [Compound I-133, (4-(5-amino-6-(5-phenyl-1,3,4-oxadiazol-2-yl)pyrazin-2-yl)-5,6-dihydropyridin-1(2H)-yl)(2,6-difluorophenyl)methanone]	< 100
Cc1ccc2nc(-c3nc(N4CCNC(=O)CC4)cnc3N)[nH]c2c1 [Compound I-65, 1-(5-amino-6-(6-methyl-1H-benzo[d]imidazol-2-yl)pyrazin-2-yl)-1,4-diazepan-5-one]	1000 to 10000
CCC(=O)N1CC=C(c2cnc(N)c(-c3nc4ccccc4[nH]3)n2)CC1 [Compound I-309, 1-[4-[5-amino-6-(1H-benzimidazol-2-yl)pyrazin-2-yl]-3,6-dihydro-2H-pyridin-1-yl]propan-1-one]	< 100
CN(C)[C@@H]1CCN(C(=O)N2CC=C(c3cnc(N)c(-c4nc5ccccc5[nH]4)n3)CC2)C1 [Compound I-278, (R)-(4-(5-amino-6-(1H-benzo[d]imidazol-2-yl)pyrazin-2-yl)-5,6-dihydropyridin-1(2H)-yl)(3-(dimethylamino)pyrrolidin-1-yl)methanone]	100 to 1000
CCOC(=O)N1CCN(c2cnc(N)c(C(=O)Nc3ccccn3)n2)CC1 [Compound I-113, ethyl 4-(5-amino-6-(pyridin-2-ylcarbamoyl)pyrazin-2-yl)piperazine-1-carboxylate]	1000 to 10000
CC(=O)N[C@@H]1CCN(c2cnc(N)c(-c3nc4ccc(C)cc4[nH]3)n2)C1 [Compound I-9, (R)-N-(1-(5-amino-6-(6-methyl-1H-benzo[d]imidazol-2-yl)pyrazin-2-yl)pyrrolidin-3-yl)ethanamide]	1000 to 10000
Nc1ncc(C2=CCN(C(=O)c3c(F)cccc3F)CC2)nc1-c1nc2ccccc2[nH]1 [Compound I-215, (4-(5-amino-6-(1H-benzo[d]imidazol-2-yl)pyrazin-2-yl)-5,6-dihydropyridin-1(2H)-yl)(2,6-difluorophenyl)methanone]	< 100
CN(C)CC(=O)N[C@H]1CCN(c2cnc(N)c(-c3nc4ccccc4[nH]3)n2)C1 [Compound I-184, (S)-N-(1-(5-amino-6-(1H-benzo[d]imidazol-2-yl)pyrazin-2-yl)pyrrolidin-3-yl)-2-(dimethylamino)ethanamide]	1000 to 10000
CC(=O)NC1CN(c2cnc(N)c(-c3nnc(-c4ccccc4)o3)n2)C1 [Compound I-282, N-(1-(5-amino-6-(5-phenyl-1,3,4-oxadiazol-2-yl)pyrazin-2-yl)azetidin-3-yl)ethanamide]	1000 to 10000
CCC(=O)N1CCN(c2cnc(N)c(-c3nnc(-c4ccc(CNC)cc4)o3)n2)C[C@H]1C [Compound I-315, 1-[(2R)-4-[5-Amino-6-[5-[4-(methylaminomethyl)phenyl]-1,3,4-oxadiazol-2-yl]pyrazin-2-yl]-2-methyl-piperazin-1-yl]propan-1-one]	100 to 1000
Nc1ncc(N2CCN(C(=O)N3CCCCC3)CC2)nc1-c1nc2ccccc2[nH]1 [Compound I-270, (4-(5-amino-6-(1H-benzo[d]imidazol-2-yl)pyrazin-2-yl)piperazin-1-yl)(piperidin-1-yl)methanone]	1000 to 10000
COCCOC(=O)N1CCN(c2cnc(N)c(-c3nnc(-c4ccccc4)o3)n2)CC1 [Compound I-221, 2-methoxyethyl 4-(5-amino-6-(5-phenyl-1,3,4-oxadiazol-2-yl)pyrazin-2-yl)piperazine-1-carboxylate]	100 to 1000
